From patent publication US10869931B2, “Polyethylene glycol-modified angiogenesis inhibitor HM-1 and application thereof” (NANJING ANJI BIOLOGICAL TECHNOLOGY CO.,LTD, priority 2016, dated 2020)
Marks after values point to notes of the source that are not given here. Where no end group is shown, it is not given here.

What was measured:
[1] = system: Head and neck cancer tumor cells; assay: MTT proliferation inhibition, head and neck cancer cells; assay type: cell-based, human; set-up: concentration or dose not given beside the values; settings: 48 h
Outline: (§1)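 Tumour cells plated at 2×10^4 cells/mL, attached overnight, then exposed to dilutions of mPEG-HM-1 for 48 h at 37 °C, 5% CO2. MTT added 4 h, formazan dissolved in DMSO, absorbance 570/630 nm; growth inhibition = 1 − treated/untreated, three independent repeats, mean±SD.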

Brain tumor cells = assay: MTT proliferation inhibition, brain tumor cells; assay type: cell-based, human; set-up: concentration or dose not given beside the values; settings: 48 h
Outline: as §1

[2] = system: Breast cancer tumor cells; assay: MTT proliferation inhibition, breast cancer cells; assay type: cell-based, human; set-up: concentration or dose not given beside the values; settings: 48 h
Outline: as §1

[3] = system: Kidney cancer tumor cells; assay: MTT proliferation inhibition, kidney cancer cells; assay type: cell-based, human; set-up: concentration or dose not given beside the values; settings: 48 h
Outline: as §1

[4] = system: Ovarian cancer tumor cells; assay: MTT proliferation inhibition, ovarian cancer cells; assay type: cell-based, human; set-up: concentration or dose not given beside the values; settings: 48 h
Outline: as §1

[5] = system: Prostate cancer tumor cells; assay: MTT proliferation inhibition, prostate cancer cells; assay type: cell-based, human; set-up: concentration or dose not given beside the values; settings: 48 h
Outline: as §1

mouse spleen lymphocytes = assay: ConA-stimulated mouse spleen lymphocyte proliferation (MTT); assay type: cell-based; settings: ConA 5 μg/mL, 48 h
Outline: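 Proliferation read by MTT (4 h), DMSO solubilisation and OD 570 nm, 5 replicates, after 48 h culture at 37° C. Cells were erythrocyte-depleted splenocytes at 5×10^6/mL in RPMI 1640 plus 10% calf serum; groups were blank, ConA and dexamethasone 0.02 mg/mL.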

[6] = system: xylene-induced ear swelling in Kunming mice; assay: Xylene-induced ear swelling in mice; assay type: in vivo, mouse; settings: for Inhibition rate: ear swelling vs control
Outline: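 Kunming mice were dosed once daily for 5 days (aspirin 200 mg/kg as positive control, saline as blank). One hour after the last dose, xylene was applied to the right ear, with the left ear as untreated reference. Ear punches were weighed 2 h later; swelling degree = right − left weight, rate = degree/left weight ×100%.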

[7] = system: choroidal neovascularization in BN rats; assay: Laser-induced choroidal neovascularization in BN rats (FFA); assay type: in vivo, rat
Outline: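 Male BN rats (6–8 weeks) received 8 laser photocoagulation spots per eye around the optic disc (647.1 nm, 350 mW, 50 μm, 0.05 s). Confirmed models, 5 per group, were given saline or PEG-modified HM-1 intravitreally once daily for 1 week. FFA was done 3, 7, 14 and 28 days after dosing.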

[8] = 10 mg/kg once daily for 5 days, 2 h after xylene
[9] = 20 mg/kg once daily for 5 days, 2 h after xylene
[10] = 40 mg/kg once daily for 5 days, 2 h after xylene
[11] = 80 mg/kg once daily for 5 days, 2 h after xylene
[12] = Day 3 after administration, 100 μg intravitreally once daily for 1 week (Table 53)
[13] = Day 3 after administration, 100 μg intravitreally once daily for 1 week (Table 53), total spots 290-296 by table
[14] = Day 7, 100 μg intravitreally once daily for 1 week (Table 53)
[15] = Day 7, 100 μg intravitreally once daily for 1 week (Table 53), total spots 182-188 by table
[16] = Day 14, 100 μg intravitreally once daily for 1 week (Table 53)
[17] = Day 14, 100 μg intravitreally once daily for 1 week (Table 53), total spots 132-138 by table
[18] = Day 28, 100 μg intravitreally once daily for 1 week (Table 53)
[19] = Day 28, 100 μg intravitreally once daily for 1 week (Table 53), total spots 67-71 by table

Substance	rate of growth inhibition [1] [%]	rate of growth inhibition (Brain tumor cells) [%]	rate of growth inhibition [2] [%]	rate of growth inhibition [3] [%]	rate of growth inhibition [4] [%]	rate of growth inhibition [5] [%]	A570 nm/A630 nm (mouse spleen lymphocytes; 10 μg/mL)	Inhibition Rate of spleen lymphocyte proliferation (mouse spleen lymphocytes; 10 μg/mL) [%]	A570 nm/A630 nm (mouse spleen lymphocytes; 20 μg/mL)	Inhibition Rate of spleen lymphocyte proliferation (mouse spleen lymphocytes; 20 μg/mL) [%]	Swelling [6, 9]	Inhibition rate ([6]; 20 mg/kg once daily for 5 days) [%]	A570 nm/A630 nm (mouse spleen lymphocytes; 40 μg/mL)	Inhibition Rate of spleen lymphocyte proliferation (mouse spleen lymphocytes; 40 μg/mL) [%]	Swelling [6, 10]	Inhibition rate ([6]; 40 mg/kg once daily for 5 days) [%]	A570 nm/A630 nm (mouse spleen lymphocytes; 80 μg/mL)	Inhibition Rate of spleen lymphocyte proliferation (mouse spleen lymphocytes; 80 μg/mL) [%]	Swelling [6, 11]	Inhibition rate ([6]; 80 mg/kg once daily for 5 days) [%]	other results
mPEG-bALD5k-Arg-Gly-Ala-Asp-Arg-Ala-Gly-Gly-Gly-Gly-Arg-Gly-Asp ({mPEG‑bALD 5 kDa}-RGADRAGGGGRGD) [mPEG-bALD5k-HM-1]	39.92 ± 11.33	45.11 ± 12.09	50.02 ± 10.47	57.63 ± 12.09	66.76 ± 18.59	39.27 ± 12.50	0.5645 ± 0.1114	18.64	0.4957 ± 0.1286	28.56	4.18 ± 0.25** mg	31.08	–	–	–	–	–	–	–	–	A570 nm/A630 nm (mouse spleen lymphocytes; 5 μg/mL): 0.6257 ± 0.1022; Inhibition Rate of spleen lymphocyte proliferation (mouse spleen lymphocytes; 5 μg/mL): 9.82%; Inhibition rate ([6]; 5 mg/kg once daily for 5 days): 10.36%; Swelling ([6]; 5 mg/kg once daily for 5 days, right minus left ear piece weight 2 h after xylene): 5.44 ± 0.19 mg; Swelling [6, 8]: 4.83 ± 0.30* mg; Inhibition rate ([6]; 10 mg/kg once daily for 5 days): 20.47%; CNV Incidence rate ([7]; Day 3 after administration, 25 μg intravitreally once daily for 1 week (Table 53)): 55.29%; leakage Spots # ([7]; Day 3 after administration, 25 μg intravitreally once daily for 1 week (Table 53), total spots 290-296 by table): 162; CNV Incidence rate ([7]; Day 7, 25 μg intravitreally once daily for 1 week (Table 53)): 52.43%; leakage Spots # ([7]; Day 7, 25 μg intravitreally once daily for 1 week (Table 53), total spots 182-188 by table): 97; CNV Incidence rate ([7]; Day 14, 25 μg intravitreally once daily for 1 week (Table 53)): 47.10%; leakage Spots # ([7]; Day 14, 25 μg intravitreally once daily for 1 week (Table 53), total spots 132-138 by table): 65; CNV Incidence rate ([7]; Day 28, 25 μg intravitreally once daily for 1 week (Table 53)): 46.38%; leakage Spots # ([7]; Day 28, 25 μg intravitreally once daily for 1 week (Table 53), total spots 67-71 by table): 32
mPEG2-NHS10k-Arg-Gly-Ala-Asp-Arg-Ala-Gly-Gly-Gly-Gly-Arg-Gly-Asp ({mPEG2‑NHS 10 kDa}-RGADRAGGGGRGD) [mPEG2-NHS10k-HM-1]	43.52 ± 11.16	47.62 ± 11.11	50.92 ± 13.97	52.09 ± 14.91	60.69 ± 21.24	42.39 ± 12.65	0.6239 ± 0.1086	9.90	0.5533 ± 0.1067	20.09	4.72 ± 0.72* mg	23.57	0.4747 ± 0.1174	31.44	4.13 ± 0.35** mg	33.19	–	–	–	–	Swelling [6, 8]: 5.39 ± 0.14 mg; Inhibition rate ([6]; 10 mg/kg once daily for 5 days): 12.76%; incidence of CNV ([7]; BN rats, 28 days after administration, intravitreal once daily for 1 week): 39.71%; CNV Incidence rate ([7]; Day 3 after administration, 50 μg intravitreally once daily for 1 week (Table 53)): 50.34%; leakage Spots # ([7]; Day 3 after administration, 50 μg intravitreally once daily for 1 week (Table 53), total spots 290-296 by table): 148; CNV Incidence rate ([7]; Day 7, 50 μg intravitreally once daily for 1 week (Table 53)): 48.35%; leakage Spots # ([7]; Day 7, 50 μg intravitreally once daily for 1 week (Table 53), total spots 182-188 by table): 88; CNV Incidence rate ([7]; Day 14, 50 μg intravitreally once daily for 1 week (Table 53)): 43.07%; leakage Spots # ([7]; Day 14, 50 μg intravitreally once daily for 1 week (Table 53), total spots 132-138 by table): 59; CNV Incidence rate ([7]; Day 28, 50 μg intravitreally once daily for 1 week (Table 53)): 39.71%; leakage Spots # ([7]; Day 28, 50 μg intravitreally once daily for 1 week (Table 53), total spots 67-71 by table): 27
mPEG-SC20k-Arg-Gly-Ala-Asp-Arg-Ala-Gly-Gly-Gly-Gly-Arg-Gly-Asp ({mPEG‑SC 20 kDa}-RGADRAGGGGRGD) [mPEG-SC20k-HM-1]	49.26 ± 10.32	55.56 ± 12.13	52.18 ± 18.28	67.29 ± 18.16	70.94 ± 20.65	49.35 ± 10.04	–	–	0.6213 ± 0.0996	9.91	5.38 ± 0.17 mg	12.36	0.5444 ± 0.1120	21.06	4.69 ± 0.79* mg	23.67	0.4741 ± 0.1270	31.25	3.77 ± 0.33** mg	38.58	CNV Incidence rate [7, 12]: 51.35%; leakage Spots # [7, 13]: 152; CNV Incidence rate [7, 14]: 48.94%; leakage Spots # [7, 15]: 92; CNV Incidence rate [7, 16]: 45.93%; leakage Spots # [7, 17]: 62; CNV Incidence rate [7, 18]: 41.79%; leakage Spots # [7, 19]: 28
mPEG-SC40k-Arg-Gly-Ala-Asp-Arg-Ala-Gly-Gly-Gly-Gly-Arg-Gly-Asp ({mPEG‑SC 40 kDa}-RGADRAGGGGRGD) [mPEG-SC40k-HM-1]	43.22 ± 10.25	52.89 ± 15.41	50.12 ± 18.09	62.23 ± 16.51	68.46 ± 13.19	45.93 ± 12.72	–	–	–	–	–	–	0.6212 ± 0.0972	9.92	5.51 ± 0.13 mg	10.27	0.5493 ± 0.1056	20.34	4.76 ± 0.72* mg	22.42	A570 nm/A630 nm (mouse spleen lymphocytes; 160 μg/mL): 0.4794 ± 0.1214; Inhibition Rate of spleen lymphocyte proliferation (mouse spleen lymphocytes; 160 μg/mL): 30.48%; Swelling ([6]; 160 mg/kg once daily for 5 days, 2 h after xylene): 3.87 ± 0.27** mg; Inhibition rate ([6]; 160 mg/kg once daily for 5 days): 37.01%; CNV Incidence rate ([7]; Day 3 after administration, 200 μg intravitreally once daily for 1 week (Table 53)): 50.68%; leakage Spots # ([7]; Day 3 after administration, 200 μg intravitreally once daily for 1 week (Table 53), total spots 290-296 by table): 150; CNV Incidence rate ([7]; Day 7, 200 μg intravitreally once daily for 1 week (Table 53)): 50.00%; leakage Spots # ([7]; Day 7, 200 μg intravitreally once daily for 1 week (Table 53), total spots 182-188 by table): 94; CNV Incidence rate ([7]; Day 14, 200 μg intravitreally once daily for 1 week (Table 53)): 44.44%; leakage Spots # ([7]; Day 14, 200 μg intravitreally once daily for 1 week (Table 53), total spots 132-138 by table): 60; CNV Incidence rate ([7]; Day 28, 200 μg intravitreally once daily for 1 week (Table 53)): 43.28%; leakage Spots # ([7]; Day 28, 200 μg intravitreally once daily for 1 week (Table 53), total spots 67-71 by table): 29
mPEG-bALD20k-Arg-Gly-Ala-Asp-Arg-Ala-Gly-Gly-Gly-Gly-Arg-Gly-Asp ({mPEG‑bALD 20 kDa}-RGADRAGGGGRGD) [mPEG-bALD20k-HM-1]	45.13 ± 12.38	54.77 ± 13.43	60.97 ± 16.29	66.81 ± 19.48	75.65 ± 20.09	46.90 ± 11.54	–	–	0.6104 ± 0.1005	12.02	5.03 ± 0.18 mg	17.13	0.4988 ± 0.1173	28.10	4.64 ± 0.34* mg	23.62	0.4453 ± 0.1054	35.82	3.78 ± 0.27** mg	37.76	CNV Incidence rate [7, 12]: 51.54%; leakage Spots # [7, 13]: 151; CNV Incidence rate [7, 14]: 49.19%; leakage Spots # [7, 15]: 91; CNV Incidence rate [7, 16]: 45.65%; leakage Spots # [7, 17]: 63; CNV Incidence rate [7, 18]: 40.58%; leakage Spots # [7, 19]: 28
